Drawing on patent publication US5925331A, “Technetium-99m labeled peptides for thrombus imaging” (Diatide, Inc., priority 1995, dated 1999), this text covers IC50 for 4 molecules.

The test system of this test is human platelets in platelet-rich plasma. As to the kind of experiment: Platelet aggregation inhibition assay (ADP-induced, platelet-rich plasma). It counts as cell-based. The following applies: fresh human platelet-rich plasma, 300,000 platelets per microliter; ADP 10 to 15 micromolar; read-out: IC50: concentration of reagent that inhibits by 50% the aggregation of human platelets in platelet-rich plasma induced by ADP. The method, then:
Platelet aggregation studies were performed essentially as described by Zucker (1989, Methods in Enzymol. 169: 117-133). Briefly, platelet aggregation was assayed with or without putative platelet aggregation inhibitory compounds using fresh human platelet-rich plasma, comprising 300,000 platelets per microliter. Platelet aggregation was induced by the addition of a solution of adenosine diphosphate to a final concentration of 10 to 15 micromolar, and the extent of platelet aggregation monitored using a Bio/Data aggregometer (Bio/Data Corp., Horsham, Pa.). The concentrations of platelet aggregation inhibitory compounds used were varied from 0.1 to 500 μg/mL. The concentration of inhibitor that reduced the extent of platelet aggregation by 50% (defined as the IC50) was determined from plots of inhibitor concentration versus extent of platelet aggregation. An inhibition curve for peptide RGDS was determined for each batch of platelets tested as a positive control.
With `CC(=O)NCSC[C@H](NC(=O)CNC(=O)CNC(=O)[C@@H]1CSCC(=O)N[C@H](Cc2ccc(O)cc2)C(=O)N[C@@H](CSCCCN)C(=O)NCC(=O)N[C@@H](CC(=O)O)C(=O)N1)C(=O)NCC(=O)N[C@@H](CSCNC(C)=O)C(=O)NCC(=O)NCC(=O)N[C@H](Cc1ccccc1)C(=O)N1CCC[C@H]1C(=O)N[C@@H](CCCNC(=N)N)C(=O)N1CCC[C@H]1C(=O)NCC(N)=O` [Peptide P245, CH2 CO--YD.Apc.GDCGGCAcm GCAcm GGFD PRPGamide], the IC50 was determined as 0.5 µM.
As for “(CH2 CO--YD ApcGDCKGCAcm GCAcm GGC-amide)2 --BSME [Peptide P381]”, the IC50 came out at 0.035 µM.
The same measure for GRDGVRGDFCAcm GCAcm amide [Peptide P98]: 15 µM.
Turning to “GRGDVRGDFKCAcm GCAcm amide [Peptide P97]”, the IC50 was found to be 8 µM.
